From ChEMBL document CHEMBL1155170, “Rapid dissemination and diversity of CTX-M extended-spectrum beta-lactamase genes in commensal Escherichia coli isolates from healthy children from low-resource settings in Latin America” (2007) come the findings set out here.

Experiment [1] has as its system Escherichia coli. Kind of experiment: Antimicrobial activity against CTX-M-15 extended-spectrum beta-lactamase producing commensal Escherichia coli isolates from healthy children assessed as percent resistant isolates by disc diffusion method. Type of experiment: functional. Background: In agar diffusion tests the substance spreads into inoculated agar from a disc or well.

For experiment [2], the system named is Escherichia coli. The experiment in a line: Antimicrobial activity against CTX-M extended-spectrum beta-lactamase producing commensal Escherichia coli isolates from healthy children assessed as percent resistant isolates by disc diffusion method. In kind it is functional.

Consider `O=C(O)c1cn(C2CC2)c2cc(N3CCNCC3)c(F)cc2c1=O` [CIPROFLOXACIN], for which the values for the Activity in experiment [1] and in experiment [2] were 93% and 54%, respectively. The like results for `CCn1cc(C(=O)O)c(=O)c2ccc(C)nc21` [NALIDIXIC ACID] were, in that order, 93% and 57%. Turning to `CN(C)[C@@H]1C(O)=C(C(N)=O)C(=O)[C@@]2(O)C(O)=C3C(=O)c4c(O)cccc4[C@@](C)(O)[C@H]3C[C@@H]12` [TETRACYCLINE], in experiment [2], the Activity turned out to be 86%.
